This passage reports IC50 results from BindingDB's records for patent US9161922 (Case Western Reserve University, 2015).

Each structure is given as a SMILES string.

A word on the IC50: it is the midpoint of a concentration-inhibition curve. High values mean weaker potency, low ones greater potency.

Primary amine oxidase, liver isozyme, sequence (Q29437 17-762 limits assumed): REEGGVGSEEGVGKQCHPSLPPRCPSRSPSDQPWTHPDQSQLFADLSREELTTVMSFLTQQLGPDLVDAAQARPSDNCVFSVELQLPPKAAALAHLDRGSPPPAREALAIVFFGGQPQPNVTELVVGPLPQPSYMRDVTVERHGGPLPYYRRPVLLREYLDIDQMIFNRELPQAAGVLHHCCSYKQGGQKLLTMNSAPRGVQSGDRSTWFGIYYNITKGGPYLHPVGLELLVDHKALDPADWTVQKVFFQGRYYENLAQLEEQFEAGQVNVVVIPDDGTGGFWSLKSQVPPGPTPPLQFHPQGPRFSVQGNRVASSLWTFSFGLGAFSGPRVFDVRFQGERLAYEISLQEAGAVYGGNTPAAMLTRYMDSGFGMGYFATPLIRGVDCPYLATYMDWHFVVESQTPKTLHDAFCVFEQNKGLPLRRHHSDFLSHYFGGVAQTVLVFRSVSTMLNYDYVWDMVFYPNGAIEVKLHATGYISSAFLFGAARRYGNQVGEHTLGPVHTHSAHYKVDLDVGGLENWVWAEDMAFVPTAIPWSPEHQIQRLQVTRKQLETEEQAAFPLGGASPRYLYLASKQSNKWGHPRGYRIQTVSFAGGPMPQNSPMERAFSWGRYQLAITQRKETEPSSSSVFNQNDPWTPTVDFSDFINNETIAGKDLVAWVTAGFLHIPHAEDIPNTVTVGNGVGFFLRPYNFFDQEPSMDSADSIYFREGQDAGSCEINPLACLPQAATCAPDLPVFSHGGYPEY

In the test the target is Primary amine oxidase, liver isozyme (Bos taurus, UniProt Q29437). The experiment in a line: Inhibition Assay. Particulars: pH 7.2; 30 °C. The procedure:
In the following Examples, 0.9 mL aliquots of a solution of candidate inhibitor in 100 mM potassium phosphate buffer, pH 7.2 was mixed bovine plasma amine oxidase (0.1 mL, about […]) and incubated at 30° C. aerobically. Aliquots (0.1 mL) were periodically withdrawn using disposable calibrated Drummond micropipettes and diluted with 1.0 mL of benzylamine (5 mM in 50 mM sodium phosphate buffer, pH 7.2) in a 1 cm quartz cuvette (1.5 mL volume). The rate of oxidation of benzylamine to benzaldehyde was measured by recording the increase in absorbance at 250 nm for 1 minute and compared to the rate of benzylamine oxidation in a companion control solution of enzyme without inhibitor. The concentration of active BPAO was estimated from the rate of benzylamine oxidation. Inhibitory potency values (IC50 values) and partition values for inactivation of BPAO were measured at various times as in indicated in the Tables.
On to `NCC#CCNCCc1ccccc1` [US9161922, Table 1, Compound 2], for which half-maximal inhibition (IC50) required 500 µM.
The molecule `NCC#Cc1ccccc1` [US9161922, Table 1, Compound 3] came in with an IC50 of 700 µM.
Under `N#CC#CCN` [US9161922, Table 1, Compound 5] stands 13 µM; under `NCC#CCN` [US9161922, Table 1, Compound 6], 20 µM; under `NCC#CC#CCN` [US9161922, Table 1, Compound 7], 9 µM.
`NC/C=C/CN` [US9161922, Table 1, Compound 8] returned an IC50 of 2000 µM.
Under `NC/C=C(\Cl)CN` [US9161922, Table 1, Compound 9] stands 24 µM.
Under `CC#CCCN` [US9161922, Table 2, Compound 2] stands 10 µM; under `NCCC#Cc1ccccc1` [US9161922, Table 2, Compound 3], 13.5 µM.
Under `NCCC#Cc1cccnc1` [US9161922, Table 2, Compound 6] stands 3.6 µM; under `NCCC#CCc1ccccc1` [US9161922, Table 2, Compound 7], 4.6 µM; under `CC#CC(CN)c1ccccc1` (stereo not drawn) [US9161922, Table 2, Compound 8], 108 µM.
The molecule `CC#CCC(N)c1ccccc1` (stereo not drawn) [US9161922, Table 2, Compound 9] returned an IC50 of 6500 µM.
